Assay results: patent publication US20220127607A1, “METHODS AND MATERIALS FOR ACTIVATING AN INTERNAL RIBOSOME ENTRY SITE IN EXON 5 OF THE DMD GENE” (RESEARCH INSTITUTE AT NATIONWIDE CHILDREN'S HOSPITAL, priority 2014, published 2022)
Entries after “also recorded” stand apart in the source; their conditions may differ.

Tests used:
DMD exon 2 = assay: RT-PCR of exon 2 skipping in patient-derived FibroMyoD cells; format: cell-based, human
Source text: FIGS. 3A-3D. Out-of-frame exon-skipping stimulates IRES activity in patient-derived cell lines. (FIG. 3A) Schematic representation of the human DMD exon 1-10 reading frame (blue) and 5′UTR (red). Blue numbers above each exon indicate cDNA positions; red numbers at the base of each exon indicate the amino acid position. The canonical actin binding domain 1 is represented, along with the predicted (via ScanProsite) CH and ABS domains. (FIG. 3B) Schematic representation of exon 2 (SEQ ID NO: 30). The selected targeted sequences are indicated below, affecting either splice acceptor (S.A.), splice donor (S.D.), or exon splice enhancer (E.S.E.) sequences (as predicted using Human Splicing Finder or ESE finder 3.0). (FIG. 3C) Two copies each of U7-C and U7-AL were cloned into the same AAV plasmid, as they were the most efficient in skipping exon 2 (see FIGS. 10A-10B). The resulting construct is referred to as U7-ACCA. RT-PCR results after infection of U7-ACCA vector (1E11 vg) or H2A antisense oligonucleotide (AON H2A) into either wt or duplicated exon 2 FibroMyoD (FM) cells. […]
In considering skipping of exons prior to the exon 5 IRES, only the removal of exon 2 will disrupt the reading frame and result in a premature stop codon (FIG. 3A). […]

Dup2 mice [1] = assay: Evans blue dye (EBD) uptake / membrane protection assay; format: in vivo, mouse; details: Dup2 TA, 4 weeks post-injection; agent alone (U7-ACCA 5e11vg IM; PDN 1 mg/kg/day ip); untreated Dup2 14.7±6.6
Source text: FIGS. 4A-4F. Intramuscular delivery of U7-ACCA results in significant N-truncated dystrophin expression in Dup2 mice, restoring localization of dystrophin-associated proteins. […] In wild type BI6 animals (FIG. 4B), the wild type transcript was 14.2% and Del2 transcript was 85.8%. (FIG. 4C) RNA-Seq read depth using a tibialis anterior muscle total RNA library from Dup2 U7-ACCA treated (upper) and Dup2 untreated (lower) mice, mapped to the 5′ region of the mouse Dmd gene (mm9, chrX:80,150,000-81,050,000). […] The protein induced in BI6 males injected with U7-ACCA is of the same size as that expressed in the Dup2 treated animals, confirming the size difference between this protein and the full-length isoform. (C-terminal antibody: PA1-21011,Thermo, Inc). […]
FIGS. 6A-6E. […] EBD-positive fibers were quantified as a percent out of a total of 5,000 fibers counted per animal.
We examined whether expression of the IRES-driven isoform improved muscle integrity and physiology in the Dup2 mouse. Similar to the case in mdx mice, dystrophic changes in Dup2 mice are quantifiable at 4 weeks of age as widespread muscle regeneration characterized by centralized nuclei (Vulin et al., manuscript in press). […] Quantification of the number of EBD positive fiber confirms that expression of the IRES driven isoform results in protection of muscle fibers in these mice (FIG. 6B). […]

dystrophin IRES [2] = assay: Dual luciferase IRES assay in 293K cells; format: cell-based
Source text: FIGS. 12A-12B. […] Error bars represent s.d. […] N=4 animals per group. Error bars represent s.d.
(§1) Furthermore, treatment with the glucocorticoids prednisone and deflazacort are standard treatment for DMD. […] Because utrophin translation may be regulated by corticosteroids and overexpression can compensate for absent dystrophin, we assessed utrophin levels in the same injected muscles (FIG. 5E).

Dup2 mice [3] = assay: Muscle force following tetanic contraction; format: in vivo, mouse; details: Dup2 TA, 4 weeks; agent alone; untreated Dup2 170.9±14.3, BI6 274.0±12.1
Description: (§3) Dup2 tibialis anterior muscles were treated by intramuscular injection of 5e11vg U7-ACCA alone or with methylprednisolone (PDN: 1 mg/kg/day intraperitoneal) and analyzed at 4 weeks post-injection. […] EBD-positive fibers were quantified as a percent out of a total of 5,000 fibers counted per animal.

Dup2 mice [4] = assay: Central nucleation of myofibers in Dup2 mouse muscle; format: in vivo; details: Dup2 TA, 4 weeks post-injection; agent alone (U7-ACCA 5e11vg IM; PDN 1 mg/kg/day ip); untreated Dup2 73.0±1.6
Description: Expression of the IRES-driven isoform improves muscle membrane integrity and protects Dup2 muscle from contraction-induced damage. Dup2 tibialis anterior muscles were treated by intramuscular injection of 5e11vg U7-ACCA alone or with methylprednisolone (PDN: 1 mg/kg/day intraperitoneal) and analyzed at 4 weeks post-injection. […] EBD-positive fibers were quantified as a percent out of a total of 5,000 fibers counted per animal.

dystrophin IRES [5] = details: C2C12 cells, pRDEF exon 5-6 IRES construct, increasing concentrations
Description: (§2) FIGS. 5A-5F. […] (FIG. 5A) Dual luciferase assay performed on lysates from C2C12 cells transfected with the pRDEF vector carrying the exon 5-6 IRES construct. […] Error bars representate s.d. […] The image intensity for the wild-type lane was lowered to allow identification of bands. MHC=myosin heavy chain (loading control). […] Immunoblot was performed on each muscle in duplicate, and the signals for both dystrophin and α-actinin from the resulting 5 lanes were quantified using ImageJ. […] The signals for both utrophin and α-actinin from the resulting 5 lanes were quantified using ImageJ.
as §1

utrophin = assay: Utrophin immunoblot in mouse muscle; format: in vivo; details: Dup2 mice, PDN 1 mg/kg/day treated versus untreated, with or without U7-ACCA
Description: as §2, §1

Dup2 mice [6] = assay: Grip strength; format: in vivo, mouse; details: 4 weeks, agent alone, untreated Dup2 2.22±0.26, BI6 3.36±0.37
Description: as §3
(FIG. 17C) Immunostaining of dystrophin on the same samples confirms dystrophin expression and its proper localization at the sarcolemma.

dystrophin = assay: Dystrophin immunoblot in FibroMyoD cells; format: cell-based, human; details: Dup2 FibroMyoD cells treated with U7-ACCA and 6.4 μM PDN
Dup2 mice [7] = assay: Loss of force following repetitive eccentric contractions; format: in vivo, mouse; details: Dup2 TA, 4 weeks; agent alone

Compound | exon-skipping (RT-PCR, qualitative) (DMD exon 2; control and duplicated exon 2 patient-derived FibroMyoD, 3 days post AAV infection or AON transfection) | transcript lacking exon 2 (DMD exon 2; patient cell lines carrying mutation within exon 1 to 4, AAV 1×10E11 vector genomes) | Evans blue dye (EBD)-positive fibers (Dup2 mice [1]) | glucocorticoid activation of IRES (dystrophin IRES [2]) | Normalized specific force following tetanic contraction (Dup2 mice [3]) | Central nucleation (% of myofibers) (Dup2 mice [4]) | IRES activity, concentration dependence (dystrophin IRES [5]) | utrophin levels (utrophin) | Normalized maximum hindlimb grip strength (Dup2 mice [6]) | dystrophin expression (dystrophin) | Protection from loss of force following repetitive eccentric contractions (Dup2 mice [7])
AON H2A: known antisense oligonucleotide CCAUUUUGUGAAUGUUUUCUUUUGAACAUC (SEQ ID NO: 13), positive control of exon 2 skipping (chemistry not given here) | lower efficiency than U7-mediated skipping | approximately 90% | – | – | – | – | – | – | – | – | –
C[C@H]1C[C@@H]2[C@H]([C@@H](O)C[C@@]3(C)[C@H]2CC[C@]3(O)C(=O)CO)[C@@]2(C)C=CC(=O)C=C12 [PDN, 6-methyl-prednisolone] | – | – | No significant difference | not seen | No significant difference | No significant difference | increases IRES activity in a dose-dependent fashion | no statistically significant difference; also recorded: does not increase expression of utrophin | No significant difference | An increase in dystrophin expression | No significant difference
